Experimental data as given in US8648066B2 (Exelixis, Inc., priority 2009, dated 2014).

Molecular target: mTOR/GbL/Raptor (mTORC1) (Homo sapiens, UniProt P42345)
Experiment: mTOR/GbL/Raptor (mTORC1) ELISA assay
Assay type: biochemical
Details: phosphorylation of 4E-BP1; 0.2 nM mTORC1, 10 μM ATP; read-out: IC50 in this assay (mTORC1 ELISA)
Method in brief: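 ELISA read-out: phospho-4E-BP1 captured on Ni-chelate plates and detected with anti-phospho antibody plus HRP-anti-IgG luminescence. The kinase step ran 120 min at ambient temperature with 0.2 nM human mTORC1, 10 µM ATP, 50 nM His-4E-BP1, 10 mM MnCl2, pH 7.2 HEPES.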

Compound | IC50
COc1cc2c(N3CCOc4ccc(-c5ccc6nc(C)[nH]c6c5)cc4C3)ncnc2cc1Br [Example 31, 4-[7-bromo-6-(methyloxy)quinazolin-4-yl]-7-(2-methyl-1H-benzimidazol-6-yl)-2,3,4,5-tetrahydro-1,4-benzoxazepine] | 0.25 to 1 µM
Cc1nc2ccc(-c3ccc4c(c3)CN(c3ncnc5scc(C)c35)CCO4)cc2[nH]1 [Example 47, 7-(2-methyl-1H-benzimidazol-6-yl)-4-(5-methylthieno[2,3-d]pyrimidin-4-yl)-2,3,4,5-tetrahydro-1,4-benzoxazepine] | ≥ 2 µM
Cc1nc2cc(-c3ccc4c(c3)CN(c3nc(CN(C)C)nc(C)c3Cc3ccc(F)cc3)CCO4)ccc2[nH]1 [Example 347, 1-{5-[(4-fluorophenyl)methyl]-4-methyl-6-[7-(2-methyl-1H-benzimidazol-5-yl)-2,3-dihydro-1,4-benzoxazepin-4(5H)-yl]pyrimidin-2-yl}-N,N-dimethylmethanamine] | ≤ 0.01 µM
CC(O)c1nc2cc(-c3ccc4c(c3)CN(c3ncnc5c3CC(C)(C)CC5)CCO4)cnc2[nH]1 (stereo not drawn) [Example 252, 1-{6-[4-(6,6-dimethyl-5,6,7,8-tetrahydroquinazolin-4-yl)-2,3,4,5-tetrahydro-1,4-benzoxazepin-7-yl]-3H-imidazo[4,5-b]pyridin-2-yl}ethanol] | ≤ 0.01 µM
CCc1c(C)nc(CN(C)C)nc1N1CCOc2ccc(-c3ccc4[nH]c(C)nc4c3)cc2C1 [Example 349, 1-{5-ethyl-4-methyl-6-[7-(2-methyl-1H-benzimidazol-5-yl)-2,3-dihydro-1,4-benzoxazepin-4(5H)-yl]pyrimidin-2-yl}-N,N-dimethylmethanamine] | 0.25 to 1 µM
COCCOc1ccc(-c2ccc3c(c2)CN(c2nc(CN(C)C)nc4c2CC(C)(C)CC4)CCO3)cc1OC [Example 327, 1-(6,6-dimethyl-4-{7-[3-(methyloxy)-4-{[2-(methyloxy)ethyl]oxy}phenyl]-2,3-dihydro-1,4-benzoxazepin-4(5H)-yl}-5,6,7,8-tetrahydroquinazolin-2-yl)-N,N-dimethylmethanamine] | 0.25 to 1 µM
CC(C)(O)CNS(=O)(=O)c1cc(-c2ccc3c(c2)CN(c2ncnc4c2CC(C)(C)CC4)CCO3)cnc1N [Example 369, 2-amino-5-[4-(6,6-dimethyl-5,6,7,8-tetrahydroquinazolin-4-yl)-2,3,4,5-tetrahydro-1,4-benzoxazepin-7-yl]-N-(2-hydroxy-2-methylpropyl)pyridine-3-sulfonamide] | ≤ 0.01 µM
c1ccc2c(N3CCOc4ccc(-c5cn[nH]c5)cc4C3)ccnc2c1 [Example 137, 7-(1H-pyrazol-4-yl)-4-quinolin-4-yl-2,3,4,5-tetrahydro-1,4-benzoxazepine] | 1 to 2 µM
CC1(C)CCc2ncnc(N3CCOc4ccc(-c5cnc(N)c(S(=O)(=O)NC(C)(C)CO)c5)cc4C3)c2C1 [Example 367, 2-amino-5-[4-(6,6-dimethyl-5,6,7,8-tetrahydroquinazolin-4-yl)-2,3,4,5-tetrahydro-1,4-benzoxazepin-7-yl]-N-(2-hydroxy-1,1-dimethylethyl)pyridine-3-sulfonamide] | 0.01 to 0.05 µM
CCc1nc2cc(-c3ccc4c(c3)CN(c3ncnc5c3CC(C)(C)CC5)CCO4)cnc2[nH]1 [Example 220, 4-(6,6-dimethyl-5,6,7,8-tetrahydroquinazolin-4-yl)-7-(2-ethyl-3H-imidazo[4,5-b]pyridin-6-yl)-2,3,4,5-tetrahydro-1,4-benzoxazepine] | ≤ 0.01 µM
CCNc1nc2ccc(-c3ccc4c(c3)CN(c3cc(C)nc5cc(OC)ccc35)CCO4)cc2[nH]1 [Example 247, N-ethyl-6-{4-[2-methyl-7-(methyloxy)quinolin-4-yl]-2,3,4,5-tetrahydro-1,4-benzoxazepin-7-yl}-1H-benzimidazol-2-amine] | 0.25 to 1 µM
CN1CCC(CNS(=O)(=O)c2cc(-c3ccc4c(c3)CN(c3ncnc5c3CC(C)(C)CC5)CCO4)cnc2N)CC1 [Example 381, 2-amino-5-[4-(6,6-dimethyl-5,6,7,8-tetrahydroquinazolin-4-yl)-2,3,4,5-tetrahydro-1,4-benzoxazepin-7-yl]-N-[(1-methylpiperidin-4-yl)methyl]pyridine-3-sulfonamide] | 0.25 to 1 µM
COc1cccc(Cc2c(C)ncnc2N2CCOc3ccc(-c4ccc5nc(C)[nH]c5c4)cc3C2)c1 [Example 81, 7-(2-methyl-1H-benzimidazol-6-yl)-4-(6-methyl-5-{[3-(methyloxy)phenyl]methyl}pyrimidin-4-yl)-2,3,4,5-tetrahydro-1,4-benzoxazepine] | 0.01 to 0.05 µM
CC1(C)CCc2ncnc(N3CCOc4ccc(-c5cnc6nc[nH]c6c5)cc4C3)c2C1 [Example 221, 4-(6,6-dimethyl-5,6,7,8-tetrahydroquinazolin-4-yl)-7-(1H-imidazo[4,5-b]pyridin-6-yl)-2,3,4,5-tetrahydro-1,4-benzoxazepine] | ≤ 0.01 µM

Second part, the molecule after the results:

IC50 | Compound
0.25 to 1 µM | COc1ccc(-c2ccc3c(c2)CN(c2nc(CN(C)C)nc4c2CC(C)(C)CC4)CCO3)cc1S(C)(=O)=O [Example 652, 1-(6,6-dimethyl-4-{7-[4-(methyloxy)-3-(methylsulfonyl)phenyl]-2,3-dihydro-1,4-benzoxazepin-4(5H)-yl}-5,6,7,8-tetrahydroquinazolin-2-yl)-N,N-dimethylmethanamine]
0.05 to 0.25 µM | CC1(C)CCc2ncnc(N3CCOc4ccc(-c5cnc(N)c(S(=O)(=O)N6CC7CNCC7C6)c5)cc4C3)c2C1 (stereo not drawn) [Example 511, 5-[4-(6,6-dimethyl-5,6,7,8-tetrahydroquinazolin-4-yl)-2,3,4,5-tetrahydro-1,4-benzoxazepin-7-yl]-3-(hexahydropyrrolo[3,4-c]pyrrol-2(1H)-ylsulfonyl)pyridin-2-amine]
0.01 to 0.05 µM | CC1(C)CCc2ncnc(N3CCOc4ccc(-c5cnc(N)c(S(=O)(=O)NCC6(N)CC6)c5)cc4C3)c2C1 [Example 418, 2-amino-N-[(1-aminocyclopropyl)methyl]-5-[4-(6,6-dimethyl-5,6,7,8-tetrahydroquinazolin-4-yl)-2,3,4,5-tetrahydro-1,4-benzoxazepin-7-yl]pyridine-3-sulfonamide]
0.01 to 0.05 µM | Cc1nc2ncc(-c3ccc4c(c3)CN(c3ncnc(C)c3CC3CC3)CCO4)cc2[nH]1 [Example 493, 4-[5-(cyclopropylmethyl)-6-methylpyrimidin-4-yl]-7-(2-methyl-1H-imidazo[4,5-b]pyridin-6-yl)-2,3,4,5-tetrahydro-1,4-benzoxazepine]
0.01 to 0.05 µM | Cc1nc(CN(C)C)nc(N2CCOc3ccc(-c4cnc5sc(N)nc5c4)cc3C2)c1C(C)C [Example 674, 6-(4-{2-[(dimethylamino)methyl]-6-methyl-5-(1-methylethyl)pyrimidin-4-yl}-2,3,4,5-tetrahydro-1,4-benzoxazepin-7-yl)[1,3]thiazolo[5,4-b]pyridin-2-amine]
0.05 to 0.25 µM | CCc1c(C)nc(C)nc1N1CCOc2ccc(-c3cnc4nc(C)[nH]c4c3)cc2C1 [Example 469, 4-(5-ethyl-2,6-dimethylpyrimidin-4-yl)-7-(2-methyl-1H-imidazo[4,5-b]pyridin-6-yl)-2,3,4,5-tetrahydro-1,4-benzoxazepine]
≤ 0.01 µM | Cc1nc2cc(-c3ccc4c(c3)CN(c3nc([C@@H]5CCCN5)nc5c3CC(C)(C)CC5)CCO4)cnc2[nH]1 [Example 507, 4-{6,6-dimethyl-2-[(2S)-pyrrolidin-2-yl]-5,6,7,8-tetrahydroquinazolin-4-yl}-7-(2-methyl-3H-imidazo[4,5-b]pyridin-6-yl)-2,3,4,5-tetrahydro-1,4-benzoxazepine]
